In ChEMBL document CHEMBL1155237, “Selective inhibitors of the mutant B-Raf pathway: discovery of a potent and orally bioavailable aminoisoquinoline” (J Med Chem, 2009):

How the values were obtained:
[1] = AUC (0 to 24 hrs) in human A375 SQ2 cells xenografted po dosed CD1 mouse administered twice daily for 14 days; type: ADME, organism-based; set-up: time < 24 hr, route oral; settings: in vivo
[2] = system: A-375; assay: Antitumor activity against human A375 SQ2 cells xenografted in CD1 mouse assessed as inhibition of tumor growth at 20 mg/kg, po bid for 14 days; type: functional; set-up: Activity: scale not given: the % may be the effect or the level left; settings: for inhibition in vivo at 20 mg/kg: Mus musculus, A375-SQ2, 336 h
[3] = system: A-375; assay: Antitumor activity against human A375 SQ2 cells xenografted in po dosed CD1 mouse assessed as inhibition of tumor growth administered twice daily for 14 days; type: functional; settings: 336 h
[4] = biological target: Vascular endothelial growth factor receptor 2 (Homo sapiens, UniProt P35968); assay: Inhibition of KDR
Sequence of Vascular endothelial growth factor receptor 2 (P35968 whole entry): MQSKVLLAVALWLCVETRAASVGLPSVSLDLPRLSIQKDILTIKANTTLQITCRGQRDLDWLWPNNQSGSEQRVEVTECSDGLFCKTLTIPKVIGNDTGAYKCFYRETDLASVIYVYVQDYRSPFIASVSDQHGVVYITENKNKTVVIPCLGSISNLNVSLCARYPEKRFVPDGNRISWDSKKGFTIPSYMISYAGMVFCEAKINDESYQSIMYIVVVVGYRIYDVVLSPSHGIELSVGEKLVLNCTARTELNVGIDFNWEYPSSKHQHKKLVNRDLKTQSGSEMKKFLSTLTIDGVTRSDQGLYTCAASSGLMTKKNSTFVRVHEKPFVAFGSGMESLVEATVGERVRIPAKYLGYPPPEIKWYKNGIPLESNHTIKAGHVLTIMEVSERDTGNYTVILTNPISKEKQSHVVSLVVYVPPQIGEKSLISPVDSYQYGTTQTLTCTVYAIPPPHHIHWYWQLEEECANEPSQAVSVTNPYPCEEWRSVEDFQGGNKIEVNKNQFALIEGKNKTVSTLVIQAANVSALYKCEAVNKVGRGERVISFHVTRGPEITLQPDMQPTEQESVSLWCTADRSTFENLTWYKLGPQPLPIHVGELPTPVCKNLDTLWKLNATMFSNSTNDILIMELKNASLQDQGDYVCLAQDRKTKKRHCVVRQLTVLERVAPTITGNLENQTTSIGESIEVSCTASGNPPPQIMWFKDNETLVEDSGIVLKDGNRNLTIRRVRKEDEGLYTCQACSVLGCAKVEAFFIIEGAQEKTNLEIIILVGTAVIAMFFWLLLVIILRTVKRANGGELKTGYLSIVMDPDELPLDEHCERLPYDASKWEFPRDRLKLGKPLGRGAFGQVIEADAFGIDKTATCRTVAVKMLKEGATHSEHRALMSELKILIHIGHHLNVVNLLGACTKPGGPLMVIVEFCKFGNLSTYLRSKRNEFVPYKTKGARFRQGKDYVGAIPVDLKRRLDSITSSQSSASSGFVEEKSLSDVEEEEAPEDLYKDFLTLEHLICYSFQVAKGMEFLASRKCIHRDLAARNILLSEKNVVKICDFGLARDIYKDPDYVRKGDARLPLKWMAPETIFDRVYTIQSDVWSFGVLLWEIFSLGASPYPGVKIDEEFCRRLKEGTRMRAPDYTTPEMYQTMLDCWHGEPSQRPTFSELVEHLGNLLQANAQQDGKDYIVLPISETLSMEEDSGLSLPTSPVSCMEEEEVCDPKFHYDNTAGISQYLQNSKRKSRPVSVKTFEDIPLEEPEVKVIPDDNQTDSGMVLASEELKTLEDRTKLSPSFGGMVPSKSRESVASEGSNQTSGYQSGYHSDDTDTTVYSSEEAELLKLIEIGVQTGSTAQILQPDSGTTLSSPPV

[5] = system: Mus musculus; assay: Inhibition of ERK phosphorylation in human A375 SQ2 cells xenografted CD1 mouse at 10 mg/kg, po bid after 6 hrs; type: functional; settings: CD1, A375-SQ2, 6 h
[6] = Oral bioavailability in Sprague-Dawley rat at 5 mg/kg; type: ADME, organism-based; settings: in vivo
[7] = system: Mus musculus; assay: Inhibition of ERK phosphorylation in human A375 SQ2 cells xenografted CD1 mouse at 35 mg/kg, po bid after 6 hrs; type: functional; settings: CD1, A375-SQ2, 6 h
[8] = biological target: Mitogen-activated protein kinase 14 (Homo sapiens, UniProt Q16539); assay: Inhibition of p38alpha
Sequence of Mitogen-activated protein kinase 14 (Q16539 whole entry): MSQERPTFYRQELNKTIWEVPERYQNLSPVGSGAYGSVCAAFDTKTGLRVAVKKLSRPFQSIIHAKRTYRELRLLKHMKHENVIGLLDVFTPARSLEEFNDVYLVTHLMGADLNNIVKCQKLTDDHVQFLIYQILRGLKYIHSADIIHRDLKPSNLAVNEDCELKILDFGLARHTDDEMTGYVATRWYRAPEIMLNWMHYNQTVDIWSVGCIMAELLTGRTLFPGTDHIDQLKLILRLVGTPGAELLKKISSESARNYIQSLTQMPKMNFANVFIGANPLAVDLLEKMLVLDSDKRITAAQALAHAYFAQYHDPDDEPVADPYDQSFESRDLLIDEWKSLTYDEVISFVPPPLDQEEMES

[9] = Volume of distribution at steady state in Sprague-Dawley rat at 2 mg/kg, iv and 5 mg/kg, po; type: ADME, organism-based; settings: in vivo, read-out: Vdss
[10] = biological target: Angiopoietin-1 receptor (Homo sapiens, UniProt Q02763); assay: Inhibition of Tie2
Sequence of Angiopoietin-1 receptor (Q02763 whole entry): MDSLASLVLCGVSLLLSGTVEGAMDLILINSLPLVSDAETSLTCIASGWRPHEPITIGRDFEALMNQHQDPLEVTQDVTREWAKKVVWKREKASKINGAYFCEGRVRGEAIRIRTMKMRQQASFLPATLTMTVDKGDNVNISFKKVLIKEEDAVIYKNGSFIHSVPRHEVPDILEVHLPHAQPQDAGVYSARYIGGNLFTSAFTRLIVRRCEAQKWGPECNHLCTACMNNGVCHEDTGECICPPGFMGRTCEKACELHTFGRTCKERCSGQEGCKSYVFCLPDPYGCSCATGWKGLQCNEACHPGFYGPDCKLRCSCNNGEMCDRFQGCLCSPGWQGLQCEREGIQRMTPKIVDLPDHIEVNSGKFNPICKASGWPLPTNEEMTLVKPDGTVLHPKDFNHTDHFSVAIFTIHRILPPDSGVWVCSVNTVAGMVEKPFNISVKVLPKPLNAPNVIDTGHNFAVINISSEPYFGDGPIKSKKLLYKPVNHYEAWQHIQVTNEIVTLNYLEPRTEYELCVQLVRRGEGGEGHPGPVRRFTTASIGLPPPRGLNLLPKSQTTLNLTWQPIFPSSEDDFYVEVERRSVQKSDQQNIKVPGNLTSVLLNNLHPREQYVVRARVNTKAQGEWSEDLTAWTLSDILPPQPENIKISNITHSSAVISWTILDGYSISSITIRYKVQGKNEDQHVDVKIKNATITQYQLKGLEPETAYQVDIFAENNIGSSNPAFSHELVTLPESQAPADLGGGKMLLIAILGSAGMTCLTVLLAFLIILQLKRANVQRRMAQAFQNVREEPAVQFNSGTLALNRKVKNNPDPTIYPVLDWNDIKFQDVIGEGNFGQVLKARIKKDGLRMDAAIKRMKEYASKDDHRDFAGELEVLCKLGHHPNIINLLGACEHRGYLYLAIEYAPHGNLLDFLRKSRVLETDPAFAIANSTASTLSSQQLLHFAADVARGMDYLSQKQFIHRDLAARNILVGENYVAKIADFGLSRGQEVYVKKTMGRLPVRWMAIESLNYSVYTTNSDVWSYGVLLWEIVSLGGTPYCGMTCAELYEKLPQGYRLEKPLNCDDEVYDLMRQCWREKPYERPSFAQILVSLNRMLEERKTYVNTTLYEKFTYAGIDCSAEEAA

[11] = system: A-375; assay: Antitumor activity against human A375 SQ2 cells xenografted in CD1 mouse assessed as regression of tumor growth at 35 mg/kg, po bid for 14 days; type: functional
[12] = system: Mus musculus; assay: Inhibition of ERK phosphorylation in human A375 SQ2 cells xenografted CD1 mouse at 20 mg/kg, po bid after 6 hrs; type: functional; settings: CD1, A375-SQ2, 6 h
[13] = system: A-375; assay: Antitumor activity against human A375 SQ2 cells xenografted in CD1 mouse assessed as inhibition of tumor growth at 10 mg/kg, po bid for 14 days; type: functional; settings: A375-SQ2, 336 h
[14] = Elimination half life in Sprague-Dawley rat at 2 mg/kg, iv and 5 mg/kg, po; type: ADME, organism-based; settings: in vivo, read-out: beta t1/2 (converted)
[15] = Clearance in Sprague-Dawley rat at 2 mg/kg, iv and 5 mg/kg, po; type: ADME, organism-based; settings: in vivo
[16] = biological target: Tyrosine-protein kinase Lck (Homo sapiens, UniProt P06239); assay: Inhibition of LCK
Sequence of Tyrosine-protein kinase Lck (P06239 whole entry): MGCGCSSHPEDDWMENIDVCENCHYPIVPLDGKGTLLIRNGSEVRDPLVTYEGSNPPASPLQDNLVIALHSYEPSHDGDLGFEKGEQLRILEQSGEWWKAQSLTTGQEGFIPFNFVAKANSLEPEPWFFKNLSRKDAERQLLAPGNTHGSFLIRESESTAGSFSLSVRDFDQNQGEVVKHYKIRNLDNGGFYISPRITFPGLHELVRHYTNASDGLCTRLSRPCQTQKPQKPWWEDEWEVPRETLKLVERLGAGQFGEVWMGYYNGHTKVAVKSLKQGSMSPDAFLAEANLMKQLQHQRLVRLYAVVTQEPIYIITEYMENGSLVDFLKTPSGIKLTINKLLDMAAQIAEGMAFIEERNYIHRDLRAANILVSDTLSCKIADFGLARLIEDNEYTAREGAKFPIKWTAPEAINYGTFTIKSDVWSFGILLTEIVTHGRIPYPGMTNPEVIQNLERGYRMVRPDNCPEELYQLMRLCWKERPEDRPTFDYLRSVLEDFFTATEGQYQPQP

[17] = biological target: Serine/threonine-protein kinase B-raf (Homo sapiens, UniProt P15056, V600E); assay: Inhibition of recombinant Braf V600E mutant
Sequence of Serine/threonine-protein kinase B-raf (P15056 2-766 V600E limits assumed): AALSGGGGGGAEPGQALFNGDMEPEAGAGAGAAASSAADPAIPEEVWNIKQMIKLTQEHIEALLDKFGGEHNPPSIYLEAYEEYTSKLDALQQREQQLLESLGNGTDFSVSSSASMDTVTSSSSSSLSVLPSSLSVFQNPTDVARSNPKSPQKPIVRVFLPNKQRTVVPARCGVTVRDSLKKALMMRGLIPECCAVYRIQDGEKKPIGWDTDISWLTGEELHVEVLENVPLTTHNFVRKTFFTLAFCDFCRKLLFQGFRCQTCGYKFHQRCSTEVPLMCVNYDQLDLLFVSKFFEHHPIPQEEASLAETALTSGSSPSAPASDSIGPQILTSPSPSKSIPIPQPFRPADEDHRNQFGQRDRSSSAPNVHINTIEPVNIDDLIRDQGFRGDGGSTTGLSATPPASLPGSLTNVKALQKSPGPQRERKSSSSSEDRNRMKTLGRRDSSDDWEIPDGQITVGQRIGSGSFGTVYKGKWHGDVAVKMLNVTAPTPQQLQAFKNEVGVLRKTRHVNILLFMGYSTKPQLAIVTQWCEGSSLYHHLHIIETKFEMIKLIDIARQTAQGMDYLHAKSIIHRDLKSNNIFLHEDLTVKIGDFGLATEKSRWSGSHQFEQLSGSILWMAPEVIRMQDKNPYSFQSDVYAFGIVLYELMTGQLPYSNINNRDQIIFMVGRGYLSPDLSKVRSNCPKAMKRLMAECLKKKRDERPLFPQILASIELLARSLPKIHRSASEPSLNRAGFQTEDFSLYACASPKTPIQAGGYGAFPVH

[18] = system: Mus musculus; assay: Inhibition of ERK phosphorylation in human A375 SQ2 cells xenografted CD1 mouse at 17.5 mg/kg, po bid after 6 hrs; type: functional; settings: CD1, A-375, 6 h
[19] = system: A-375; assay: Antitumor activity against human A375 SQ2 cells xenografted in CD1 mouse assessed as inhibition of tumor growth at 17.5 mg/kg, po bid for 14 days; type: functional; settings: A375-SQ2, 336 h
[20] = system: Mus musculus; assay: Inhibition of ERK phosphorylation in human A375 SQ2 cells xenografted CD1 mouse at 5 mg/kg, po bid after 6 hrs; type: functional; settings: CD1, A-375, 6 h
[21] = system: A-375; assay: Antitumor activity against human A375 SQ2 cells xenografted in CD1 mouse assessed as inhibition of tumor growth at 5 mg/kg, po bid for 14 days; type: functional; settings: A375-SQ2, 336 h
[22] = system: Mus musculus; assay: Inhibition of ERK phosphorylation in human A375 SQ2 cells xenografted CD1 mouse at 60 mg/kg, po bid after 6 hrs; type: functional; settings: CD1, A375-SQ2, 6 h
[23] = system: A-375; assay: Antitumor activity against human A375 SQ2 cells xenografted in CD1 mouse assessed as regression of tumor growth at 100 mg/kg, po bid for 14 days; type: functional
[24] = system: A-375; assay: Antitumor activity against human A375 SQ2 cells xenografted in CD1 mouse assessed as inhibition of tumor growth at 30 mg/kg, po bid for 14 days; type: functional; settings: A-375, 336 h
[25] = system: Mus musculus; assay: Inhibition of ERK phosphorylation in human A375 SQ2 cells xenografted CD1 mouse at 30 mg/kg, po bid after 6 hrs; type: functional; settings: CD1, A375-SQ2, 6 h
[26] = system: A-375; assay: Antitumor activity against human A375 SQ2 cells xenografted in CD1 mouse assessed as inhibition of tumor growth at 60 mg/kg, po bid for 14 days; type: functional; settings: A375-SQ2, 336 h
[27] = system: Mus musculus; assay: Inhibition of ERK phosphorylation in human A375 SQ2 cells xenografted CD1 mouse at 100 mg/kg, po bid after 6 hrs; type: functional; settings: CD1, A375-SQ2, 6 h

Structure (SMILES)	ED50 [3]	IC50 [4]	bioavailability [6]	inhibition in vivo at 35 mg/kg [7]	IC50 [8]	Vd [9]	IC50 [10]	Activity [11]	half-life [14]	clearance [15]	IC50 [16]	IC50 [17]	also measured
CNc1cc(-c2cccnc2Nc2c(C)ccc3c(Nc4ccc5sc(C)nc5c4)nccc23)ncn1	11 mg/kg	170 nM	100%	66%	350 nM	0.72 L/kg	5.8 nM	24%	174 min	5.5 mL/min/kg	23 nM	–	AUC at 24 h [1]: 12300 ng·h/mL; inhibition in vivo at 20 mg/kg [2]: 85%; inhibition in vivo at 10 mg/kg [5]: 30%; inhibition in vivo at 20 mg/kg [12]: 52%; inhibition in vivo at 10 mg/kg [13]: 42%
CNc1cc(-c2cccnc2Nc2c(C)ccc3c(Nc4ccc(C#N)cc4)nccc23)ncn1	11.5 mg/kg	> 1000 nM	100%	78%	> 1600 nM	0.37 L/kg	400 nM	17%	162 min	1.83 mL/min/kg	150 nM	39 nM	AUC at 24 h [1]: 52800 ng·h/mL; inhibition in vivo at 10 mg/kg [5]: 21%; inhibition in vivo at 17.5 mg/kg [18]: 63%; inhibition in vivo at 17.5 mg/kg [19]: 80%; inhibition in vivo at 10 mg/kg [13]: 50%
C#Cc1cccc(Nc2nccc3c(Nc4ncccc4-c4cc(NC)ncn4)c(C)ccc23)c1	13 mg/kg	420 nM	76%	81%	450 nM	2.2 L/kg	8.1 nM	54%	168 min	12.2 mL/min/kg	210 nM	–	AUC at 24 h [1]: 9410 ng·h/mL; inhibition in vivo at 20 mg/kg [2]: 78%; inhibition in vivo at 20 mg/kg [12]: 40%; inhibition in vivo at 5 mg/kg [20]: 5%; inhibition in vivo at 5 mg/kg [21]: 18%
Cc1ccc2c(Nc3ccc(Cl)cc3)nccc2c1Nc1ncccc1-c1ccncn1	–	> 25000 nM	83%	–	> 1600 nM	2.2 L/kg	520 nM	–	210 min	11.2 mL/min/kg	280 nM	3.4 nM	–
Cc1ccc(C(=O)Nc2cccc(C(F)(F)F)c2)cc1Nc1ncccc1-c1ccncn1	–	4.2 nM	16%	–	12 nM	1.9 L/kg	–	–	78 min	35 mL/min/kg	–	0.46 nM	–
CNc1ncc2cc(-c3cc(C(=O)Nc4cccc(C(F)(F)F)c4)ccc3C)ccc2n1	–	–	–	–	3.5 nM	3.6 L/kg	1.8 nM	–	138 min	26.7 mL/min/kg	0.27 nM	1.7 nM	–
CNc1ncc2cc(-c3c(C)ccc4c(Nc5ccc6c(c5)NC(=O)C6(C)C)nccc34)ccc2n1	4.7 mg/kg	240 nM	55%	85%	51 nM	4.3 L/kg	> 1000 nM	75%	288 min	10.8 mL/min/kg	78 nM	21 nM	Activity [2]: 55%; inhibition in vivo at 10 mg/kg [5]: 60%; inhibition in vivo at 20 mg/kg [12]: 82%; inhibition in vivo at 10 mg/kg [13]: 85%
CNc1cc(-c2cccnc2Nc2c(C)ccc3c(Nc4ccc(Cl)cc4)nccc23)ncn1	–	300 nM	100%	–	> 1600 nM	1.7 L/kg	24 nM	–	282 min	4.83 mL/min/kg	12 nM	56 nM	–
CNc1ncc2cc(-c3c(C)ccc4c(Nc5ccc(Cl)cc5)nccc34)ccc2n1	–	> 25000 nM	–	–	> 1600 nM	–	> 1000 nM	–	–	–	110 nM	5.4 nM	–
CNc1ncc2cc(-c3c(C)ccc4c(Nc5cc(C(C)(C)C)nn5C)nccc34)ccc2n1	27 mg/kg	230 nM	24%	–	110 nM	5.5 L/kg	200 nM	–	234 min	30 mL/min/kg	21 nM	–	inhibition in vivo at 60 mg/kg [22]: 67%; Activity [23]: 45%; inhibition in vivo at 30 mg/kg [24]: 60%; inhibition in vivo at 30 mg/kg [25]: 50%; inhibition in vivo at 60 mg/kg [26]: 90%; inhibition in vivo at 100 mg/kg [27]: 78%
Cc1ccc2c(Nc3cccc(C(F)(F)F)c3)nccc2c1Nc1ncccc1-c1ccncn1	–	760 nM	22%	–	> 1600 nM	3.7 L/kg	47 nM	–	270 min	20 mL/min/kg	81 nM	17 nM	–
